{
  "source": "paper PMC9029323",
  "about": "“In Silico Identification of Novel Inhibitors Targeting the Homodimeric Interface of Superoxide Dismutase from the Dental Pathogen Streptococcus mutans” (Antioxidants, 2022)",
  "key": {"[1]": {"molecular_target": "T1, Cu/ZnSOD from bovine erythrocytes (Bos taurus, UniProt P00442)", "T1 construct": "the Cu/Zn-SOD from bovine erythrocytes (cat. 574594) were purchased from Sigma–Aldrich; purchased Sigma–Aldrich 574594; host or cells: bovine erythrocytes", "T1 sequence (P00442 whole entry)": "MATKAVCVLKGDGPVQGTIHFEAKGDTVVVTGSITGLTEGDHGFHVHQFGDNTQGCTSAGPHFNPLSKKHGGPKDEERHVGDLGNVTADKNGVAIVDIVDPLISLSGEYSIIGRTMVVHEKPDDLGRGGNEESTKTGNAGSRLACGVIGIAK", "assay": "SOD activity assay with Cu/Zn-SOD", "type": "biochemical", "text": "Purified recombinant forms of SmSOD and StSOD were obtained through a heterologous expression system constituted by the Escherichia coli BL21(DE3) strain transformed with appropriate expression vectors, vSmSOD [11] or vStSOD [12]. These pET-22b(+)- or pET-28b(+)-derived plasmids led to the production of recombinant forms of SmSOD or StSOD, respectively fused to a His-tail, useful for their one-step purification by affinity chromatography, as previously described [11, 12]. The improvement of Mn uptake by SmSOD was realised as previously described [11, 12, 13]. The resulting metal (Fe and Mn) content in the cambialistic enzyme was determined by graphite furnace atomic absorption spectrometry with a Shimadzu ACS-6100 auto sampler [46]. Fe-SOD from Escherichia coli (cat. SRP6107) and the Cu/Zn-SOD from bovine erythrocytes (cat. 574594) were purchased from Sigma–Aldrich. A recombinant form of the eukaryal Mn–SOD from rat mitochondria was prepared as previously described [19]. Protein concentration was determined by the Bradford method, using bovine serum albumin as standard [47]. […] One unit of SOD activity was defined as the amount of enzyme that caused 50% inhibition of cytochrome c reduction."}, "[2]": {"system": "fibroblast cell line BJ-5ta", "assay": "Colony-forming assay", "type": "cell-based, human", "details": "up to 100 µM", "method": "The cell line BJ-5ta, a human skin fibroblast immortalised with the human telomerase reverse transcriptase (Cell Culture Facility of CEINGE, Naples, Italy), was cultured in a 4:1 mixture of DMEM and Medium 199 supplemented with 4 mM L-glutamine, 4.5 g/L glucose, 1.5 g/L sodium bicarbonate, 10% FBS, 100 IU/mL penicillin G and […] streptomycin in a humidified incubator at 37 °C under 5% CO2 atmosphere. Cells were split and seeded every 3 days and used during their exponential phase of growth. Cell treatments were usually carried out after 24 h from plating. To obtain total protein extracts from BJ5-ta, cells were seeded into six-well plates (3 × 10^5 cells/plate) for 24 h at 37 °C and then treated with ALS-31 or 0.5% (v/v) DMSO. After treatment, cells were harvested, washed with PBS and then lysed in ice-cold modified radio immunoprecipitation assay (RIPA) buffer (50 mM Tris•HCl, pH 7.4, 150 mM NaCl, 1% Nonidet P-40, 0.25% sodium deoxycholate, 1 mM Na3VO4 and 1 mM NaF), supplemented with protease inhibitors and incubated for 30 min on ice. […]\nA colony-forming assay was performed as previously described, with some modifications. […] Cells were photographed with a digital camera (Canon PowerShot G9); the number of colonies (≥50 cells per colony) was counted using ImageJ 1.42q software."}},
  "note": "Entries after “also recorded” stand apart in the source; their conditions may differ.",
  "data": [
    {"compound": "CSCCC(NC(=O)COc1ccc2c3c(c(=O)oc2c1)CCCC3)C(=O)NCCC(=O)O", "note": "(centres unmarked) [ALS-31]", "values": [
      {"measurement": "IC50", "setting": "[1]", "value": "146 ± 25", "unit": "µM"},
      {"measurement": "toxicity for growth / viability of fibroblast cell line BJ-5ta (colony formation)", "setting": "[2]", "value": "not affected; also recorded: not toxic"}
    ]}
  ]
}
